# Literature values, collected in US20260191865A1, “CANCER THERAPY WITH CAPIVASERTIB AND FULVESTRANT” (AstraZeneca AB, priority 2022, published 2026).
# Like-named read-outs stand apart in the source and are kept apart here.
# System: ER-positive, HER2-negative advanced breast cancer
smiles,measurement,setting,value
"NC1(C(=O)N[C@@H](CCO)c2ccc(Cl)cc2)CCN(c2ncnc3[nH]ccc23)CC1 [capivasertib, (S)-4-amino-N-(1-(4-chlorophenyl)-3-hydroxypropyl)-1-(7H-pyrrolo[2,3-d]pyrimidin-4-yl)piperidine-4-carboxamide]",PFS and overall survival benefit,NGS-identified pathway non-altered subgroup,no such benefit
same,progression-free survival (PFS),"capivasertib added to fulvestrant, postmenopausal women, AI-resistant, no previous CDK4/6 inhibitor",significant improvement
same,PFS and overall survival benefit,"expanded (NGS) PI3K/AKT/PTEN pathway-altered subgroup, updated analysis",significant PFS and overall survival benefit
same,benefit by original pathway status (secondary endpoint subgroup analysis),"original pathway-altered and original pathway non-altered subgroups, capivasertib added to fulvestrant",conferred benefit
